# PMC9410537, “Discovery of Ircinianin Lactones B and C—Two New Cyclic Sesterterpenes from the Marine Sponge Ircinia wistarii” (Marine Drugs, 2022)
# Where two headings read alike, the source gives them in different places.
# How the values were obtained:
# [1] = test system: Human Cytomegalovirus (HCMV); assay type: cell-based; details: up to the highest concentration tested (10 µM), HFF cells
# [2] = test system: P. falciparum NF54 strain; assay: In vitro activity against erythrocytic stages of P. falciparum (3H-hypoxanthine incorporation assay); assay type: cell-based; details: Plasmodium falciparum, Table 2 values are means of two independent assays
# Method: Activity against P. falciparum. In vitro activity against erythrocytic stages of P. falciparum was determined using a ^3H-hypoxanthine incorporation assay against the drug-sensitive NF54 strain [76]. Compounds were dissolved in DMSO at 10 mg/mL and further diluted in medium before being added to parasite cultures incubated in RPMI 1640 medium without hypoxanthine, supplemented with HEPES (5.94 g/L), NaHCO3 (2.1 g/L), neomycin (100 U/mL), Albumax^R (5 g/L) and washed human red cells A^+ at 2.5% haematocrit (0.3% parasitaemia). Serial drug dilutions ranged from 100 to 0.002 μg/mL. The 96-well plates were incubated in a humidified atmosphere at 37 °C; 4% CO2, 3% O2, 93% N2. After 48 h 50 μL of ^3H-hypoxanthine (=0.5 μCi) was added to each well of the plate. The plates were incubated for a further 24 h under the same conditions. The plates were then harvested with a Betaplate™ cell harvester (Wallac, Zurich, Switzerland) and the red blood cells were transferred onto a glass fiber filter then washed with distilled water. The dried filters were inserted into a plastic foil with 10 mL of scintillation fluid and counted in a Betaplate™ liquid scintillation counter (Wallac, Zurich, Switzerland). IC50 values were calculated from sigmoidal inhibition curves by linear regression using Microsoft Excel. Chloroquine diphosphate (Sigma C6628) was used as control (IC50 0.006 ± 0.002 μM).
# Wolbachia endosymbionts = assay: Anthelmintic assay, depletion of Wolbachia endosymbionts from cultured adult female worms; assay type: cell-based, Litomosoides sigmodontis; details: 0.1, 1 and 10 µM, two weeks of in vitro culture; not statistically significant
# Method: To investigate the activity against filarial nematodes, adult female worms of the rodent filarial nematode Litomosoides sigmodontis were cultured in vitro with a 0.1, 1 and 10 µM concentration of 1. Motility of adult filariae as well as reduction of Wolbachia endosymbionts were assessed. […] L. sigmodontis adult female worms were isolated from chronically infected cotton rats (UKB). Three L. sigmodontis female adult worms per condition were cultured in supplemented Minimal Essential Medium (MEM) on a LLCMK2 cell layer, as previously described. […] Candidate 1 was tested at concentrations of 0.1, 1 and 10 µM. Filarial viability was assessed by determining the mean worm motility scores on a scale of 0 (immotile) to 2 (maximum motility) before drug addition and at 1 h, 1 day, 2 day, 4 day, 6 day, 8 day, 10 day, 12 day and 14 day post drug addition. The drug-containing media was renewed every other day. Depletion of Wolbachia endosymbionts from female adult worms was analyzed after two weeks of in vitro culture and determined as previously described using primers for the single copy gene Wolbachia ftsZ.
# [3] = test system: Trypanosoma brucei rhodesiense STIB900; assay: Activity against Trypanosoma brucei rhodesiense STIB900 (resazurin); details: Table 2 values are means of two independent assays
# Method: Activity against Trypanosoma brucei rhodesiense STIB900. […] Minimum Essential Medium (50 µL) supplemented with 25 mM HEPES, 1 g/L additional glucose, 1% MEM non-essential amino acids (100×), 0.2 mM 2-mercaptoethanol, 1 mM Na-pyruvate and 15% heat inactivated horse serum was added to each well of a 96-well microtiter plate. Serial drug dilutions ranging from 100 to 0.002 μg/mL were prepared. Then, 4 × 10^3 bloodstream forms of T. b. rhodesiense STIB 900 in 50 µL were added to each well and the plate was incubated at 37 °C under a 5% CO2 atmosphere for 70 h. 10 µL of a resazurin solution (resazurin, 12.5 mg in 100 mL double-distilled water) was then added to each well and incubation continued for a further 2–4 h [70]. The plates were read with a Spectramax Gemini XS microplate fluorometer (Molecular Devices Cooperation, Sunnyvale, CA, USA) using an excitation wavelength of 536 nm and an emission wavelength of 588 nm. Data were analyzed using Softmax Pro (Molecular Devices Cooperation, Sunnyvale, CA, USA), which calculated IC50 values by linear regression [71] and 4-parameter logistic regression from the sigmoidal dose inhibition curves.
# E. coli ATCC25922 = assay: Antibacterial assay (MIC); assay type: cell-based; details: Escherichia coli
# Method: (§1) The minimal inhibitory concentration (MIC) was determined as described previously in cation-adjusted Mueller-Hinton medium according to the standards and guidelines of the Clinical and Laboratory Standards Institute. […] After an overnight incubation at 37 °C, the MIC was read as the lowest compound concentration preventing visible bacterial growth. The strain panel included representative species of nosocomial pathogens, known as “[…]” bacteria. Specifically, the following strains were used: Enterococcus faecium BM 4147-1, Staphylococcus aureus ATCC 29213, Klebsiella pneumoniae ATCC 12657, Acinetobacter baumannii 09987, Pseudomonas aeruginosa ATCC 27853, and Enterobacter aerogenes ATCC 13048. Bacillus subtilis 168, Escherichia coli ATCC 25922, and Mycobacterium smegmatis mc^2 155 ATCC 700084 were used as further reference strains.
# K. pneumoniae ATCC12657 = assay: Antibacterial assay (MIC); assay type: cell-based; details: Klebsiella pneumoniae
# Method: as §1
# A. baumannii 09987 = assay: Antibacterial assay (MIC); assay type: cell-based; details: Acinetobacter baumannii
# Method: as §1
# B. subtilis 168 = assay: Antibacterial assay (MIC); assay type: cell-based; details: Bacillus subtilis
# Method: as §1
# [4] = Observed stability of the isolated compounds; assay type: physicochemical; details: rapid decomposition after the NMR measurements
# Excerpt: The shift values of the terminal heterocycle were in very good agreement with literature data from similar natural products, bearing a γ-hydroxy-γ-butenolide moiety. Analogous to compound 7, the Δ^8,10 double bond of 8 was defined as E (C-9: δC 16.2 and NOESY cross correlations depicted in Figure 4). Likewise, based on the same observed diagnostic NOE crosspeaks for the indene system (Figure S43B) and for biogenetic reasons, we propose that 8 is 11R*, 15R*, 18S*, 20R*, 21S* configured. […] Therefore, we integrated computational methods and aimed for quantum-mechanical predictions of ^1H and ^13C NMR chemical shifts of a 1S- and a 1R-configured version of 8.
# All tests were performed with 1 as a pre-screening for the scaffold’s activity within their respective assays. Based on the results from the pre-screening, the biological evaluation of the structural congeners was planned. Unfortunately, an instability phenomenon affected the purity of the isolated compounds. Due to the limited amounts of the isolated compounds, repurification would not have yielded the required sample quantity for the assays. This reality precluded biological evaluation of the structural congeners 3–8.
# Ciona savignyi larvae = assay: Marine antifouling assay, larval settlement and metamorphosis; details: up to the highest concentration tested (100 µg/mL), 5 days
# Method: (§2) Antifouling activity was assessed via inhibition of settlement and metamorphosis of larvae of the Pacific transparent sea squirt (Ciona savignyi) and the blue mussel (Mytilus galloprovincialis). Methods followed those published by Grant et al.. Adults of both species were collected from coastal populations in the Nelson region of New Zealand, held in a recirculating seawater system (18 ± 1 °C, 33 ± 1 PSU) and fed bulk-cultured Isochorysis galbana until ready to spawn. Larval spawning and rearing procedures followed previously described methods for C. savignyi and M. gallorprovincialis. Competent larvae were diluted in artificial seawater to yield 3 ± 1 larvae/mL. Aliquots of these larval suspensions were added to 12-well tissue culture plates (Corning Co-Star) containing serial dilutions of 1 ranging from 0.1–100 µg/mL. Controls were included, and three replicates were performed in all cases. After 5 days of incubation at 18 ± 1 °C, the number of successfully settled and metamorphosed individuals were counted in each well. Sigmoidal dose-response relationships were explored using R Statistical Software to determine whether inhibition had occurred relative to the controls.
# [5] = test system: Mytilus galloprovincialis larvae; assay: as above; details: up to the highest concentration tested (100 µg/mL), 5 days
# Method: as §2
# [6] = test system: set of clinically relevant bacteria (ESKAPE panel and one mycobacterial strain); assay: Antibacterial assay (MIC), whole strain panel; assay type: cell-based; details: highest concentration tested
# Method: as §1
smiles,measurement,setting,value
"CC1=C[C@@H](/C=C(\C)CCCc2ccoc2)[C@]2(OC(=O)C(C)=C2O)[C@@H]2[C@@H](C)CC[C@@H]12 [compound 1, Ircinianin]",Inhibition of HCMV infection,[1],no inhibition
same,IC50,[2],25.4 µM
same,Wolbachia reduction in comparison to media controls,Wolbachia endosymbionts,< 32%
same,IC50,"[3]; Trypanosoma brucei, RHODESIENSE|STIB900, read-out: IC50 T. brucei rhodesiense, in vitro, STIB900 bloodstream forms",> 80 µM
same,IC50,"[3]; read-out: IC50 T. brucei rhodesiense, in vitro, STIB900 bloodstream forms, listed as Ircinianin (1)",82.8 µM
same,MIC,E. coli ATCC25922,> 32 µg/mL
same,MIC,K. pneumoniae ATCC12657,> 32 µg/mL
same,MIC,A. baumannii 09987,> 32 µg/mL
same,MIC,B. subtilis 168,> 32 µg/mL
same,Stability of isolated compound,[4],unstable
same,Inhibitory effect on larval settlement and metamorphosis,Ciona savignyi larvae,inactive
same,Inhibitory effect on larval settlement and metamorphosis,[5],inactive
same,MIC,[6],> 32 µg/mL
